Laboratory results from publication PMC9395488, “First-in-human study of IM156, a novel potent biguanide oxidative phosphorylation (OXPHOS) inhibitor, in patients with advanced solid tumors” (Investigational New Drugs, 2022).

Tested on: patients with advanced solid tumors
Assay: First-in-human phase 1 dose-escalation study: safety, DLTs, adverse events
Type: in vivo
Source text: This multicenter first-in-human dose-escalation phase 1 study (clinicaltrials.gov identifier: NCT03272256) was designed to determine the MTD or RP2D and to evaluate the safety and tolerability of IM156. Secondary endpoints included PK characteristics, efficacy assessment (objective response rate [ORR], disease control rate [DCR], duration of response [DoR] and progression-free survival [PFS]). Furthermore, exploratory objectives included identification and profiling of IM156 metabolites, evaluations of exploratory PD markers of IM156, and evaluations of any potential relationship between putative biomarkers and safety/efficacy parameters of IM156. The study was conducted in accordance with Good Clinical Practice, the International Council for Harmonisation, and guidelines governing clinical study conduct and the ethical principles originating from the Declaration of Helsinki. The study was approved by each Institutional Review Board and patients provided written informed consent. Patients were enrolled at three sites in South Korea.
The initial dose and schedule of IM156 was chosen based on animal toxicology studies. […] IM156 was administered in the fasted state, with no food for at least 2 h before and 1 h after dosing.
Three DLT-evaluable patients were enrolled at each dose level. If there were no DLTs or other prohibitive adverse events (AEs), the Safety Committee was allowed to recommend escalation to the next highest dose level. If 1 DLT occurred in the first 3 DLT-evaluable patients, enrollment in that cohort was expanded to an additional 3 DLT-evaluable patients; if ≥ 2 DLTs were reported in a cohort, that dose was considered above the MTD.
Safety was assessed through vital signs, weight, laboratory assessments, physical examinations, electrocardiogram, and reporting of AEs as graded by the National Cancer Institute’s Common Terminology Criteria for Adverse Events v4.03 (NCI-CTCAE).
DLTs were defined as the following AEs if they were attributed as related to IM156: asymptomatic grade 4 neutropenia lasting for ≥ 5 days; febrile neutropenia, regardless of grade; grade 4 thrombocytopenia or grade 3 thrombocytopenia with bleeding; any grade ≥ 3 non-hematologic AE (except grade 3 hypertension and grade 3 nausea, vomiting or diarrhea for which proper measures for prevention and treatment were not implemented, and alopecia); blood lactate levels > 5 mmol; grade ≥ 2 AE prohibiting dosing of IM156 for ≥ 21 continuous days except for alterations in serum calcium or phosphorus levels. The safety analysis includes all patients who received at least one dose of study drug.
The safety population was defined as all patients who received at least one dose of IM156. The PK population was not defined in the protocol but included all patients with sufficient PK data to perform adequate PK modeling. The efficacy population included all patients who underwent at least one tumor imaging assessment while receiving IM156. Safety was assessed using descriptive statistics (e.g., DLTs, AEs, laboratory tests, physical examination, 12-lead ECG). The incidence and number of events were reported for the DLTs observed in Cycle 1 per dose group. […] Adverse events and TRAEs were standardized with the System Organ Class and the Preferred Term using the Medical Dictionary for Regulatory Activities v23.0. In addition, TEAEs, serious adverse events (SAEs), TEAE severity, and TEAEs leading to withdrawal were presented by dose group. Efficacy data were to be presented by Waterfall and Swim Lane plots. Time to event endpoints (e.g., DoR, PFS) were determined using Kaplan–Meier estimations with the median value for each endpoint summarized.

[1] = DL1 100 mg orally every other day (n=3)

## NC(=Nc1ccc(OC(F)(F)F)cc1)N=C(N)N1CCCC1 [IM156]
100 mg QOD
  SAE Abdominal distension: Causality: Unlikely
  SAE Abdominal distension: Dose Interrupted: Yes
  SAE Abdominal distension: Grade: 2
  SAE Abdominal distension: Outcome: Recovered without sequelae
  SAE Gastric Obstruction: Causality: Unlikely
  SAE Gastric Obstruction: Dose Interrupted: Yes
  SAE Gastric Obstruction: Grade: 3
  SAE Gastric Obstruction: Outcome: Recovered without sequelae
200 mg QOD
  SAE Ileus: Causality: Unlikely
  SAE Ileus: Dose Interrupted: No
  SAE Ileus: Grade: 3
  SAE Ileus: Outcome: Recovered without sequelae
800 mg QOD
  SAE Cystitis: Causality: Unlikely
  SAE Cystitis: Dose Interrupted: Yes
  SAE Cystitis: Grade: 2
  SAE Cystitis: Outcome: Recovered without sequelae
  SAE Worsen abdominal pain: Causality: Unlikely
  SAE Worsen abdominal pain: Dose Interrupted: Yes
  SAE Worsen abdominal pain: Grade: 3
  SAE Worsen abdominal pain: Outcome: Resolved to Grade 1
1,200 mg QD
  SAE Akathisia: Causality: Unlikely
  SAE Akathisia: Dose Interrupted: No
  SAE Akathisia: Grade: 2
  SAE Akathisia: Outcome: Recovered without sequelae
  SAE Lethargy: Causality: Unlikely
  SAE Lethargy: Dose Interrupted: Yes
  SAE Lethargy: Grade: 2
  SAE Lethargy: Outcome: Recovered without sequelae
  SAE Perforated Appendicitis: Causality: Unlikely
  SAE Perforated Appendicitis: Dose Interrupted: No
  SAE Perforated Appendicitis: Grade: 3
  SAE Perforated Appendicitis: Outcome: Recovered without sequelae
1,200 mg QD, due to nausea
  tolerability: not well tolerated
1,200 mg QOD
  SAE Nausea: Causality: Possible
  SAE Nausea: Dose Interrupted: Yes
  SAE Nausea: Grade: 3
100 to 1,200 mg
  trend of blood lactate levels with dose or exposure: no trend
100 to 1,200 mg QOD or QD, cycle 1
  dose-limiting toxicities (DLTs), all dose levels: no DLTs
DL1 100 mg QOD (n=3)
  TEAE Abdominal distension, grade 2: 1
  TEAE Ascites, grade 1: 1
  TEAE Blood creatinine increased, grade 1: 1
  TEAE Decreased appetite, grade 1: 1
  TEAE Diarrhoea, grade 2: 1
  TEAE Gastrointestinal pain, grade 2: 1
  TEAE Hypoalbuminaemia, grade 2: 1
  TEAE Large intestinal obstruction, grade 2: 1
  TEAE Nausea, grade 1: 1
  TEAE Obstruction gastric, grade 3: 1
  TEAE Proctalgia, grade 2: 1
  TEAE Pyrexia, grade 1: 1
  TEAE Vomiting, grade 1: 1
DL1 100 mg QOD oral, N = 3
  TRAE Abdominal Pain, > G3 (patients): 0
  TRAE Abdominal Pain, All grades (patients): 0
  TRAE Blood Lactic Acid increased, > G3 (patients): 0
  TRAE Blood Lactic Acid increased, All grades (patients): 0
  TRAE Constipation, > G3 (patients): 0
  TRAE Constipation, All grades (patients): 0
  TRAE Decreased appetite, > G3 (patients): 0
  TRAE Decreased appetite, All grades (patients): 0
  TRAE Diarrhoea, > G3 (patients): 0
  TRAE Diarrhoea, All grades (patients): 0
  TRAE Fatigue, > G3 (patients): 0
  TRAE Fatigue, All grades (patients): 0
  TRAE Insomnia, > G3 (patients): 0
  TRAE Insomnia, All grades (patients): 0
  TRAE Nausea, > G3 (patients): 0
  TRAE Nausea, All grades (patients): 0
  TRAE Vomiting, > G3 (patients): 0
  TRAE Vomiting, All grades (patients): 0
[1]
  TEAE Adrenal insufficiency grade 1: 0
  TEAE Adrenal insufficiency grade 2: 0
  TEAE Adrenal insufficiency grade 3: 0
  TEAE Adrenal insufficiency grade 4: 0
  TEAE Anaemia grade 1: 0
  TEAE Anaemia grade 2: 1
  TEAE Anaemia grade 3: 0
  TEAE Anaemia grade 4: 0
  TEAE Appendicitis perforated grade 1: 0
  TEAE Appendicitis perforated grade 2: 0
  TEAE Appendicitis perforated grade 3: 0
  TEAE Appendicitis perforated grade 4: 0
  TEAE Back pain grade 1: 0
  TEAE Back pain grade 2: 0
  TEAE Back pain grade 3: 0
  TEAE Back pain grade 4: 0
  TEAE Cystitis grade 1: 0
  TEAE Cystitis grade 2: 0
  TEAE Cystitis grade 3: 0
  TEAE Cystitis grade 4: 0
  TEAE Dry skin grade 1: 0
  TEAE Dry skin grade 2: 0
  TEAE Dry skin grade 3: 0
  TEAE Dry skin grade 4: 0
  TEAE Flank pain grade 1: 0
  TEAE Flank pain grade 2: 0
  TEAE Flank pain grade 3: 0
  TEAE Flank pain grade 4: 0
  TEAE Hypertension grade 1: 0
  TEAE Hypertension grade 2: 0
  TEAE Hypertension grade 3: 0
  TEAE Hypertension grade 4: 0
  TEAE Hypotension grade 1: 0
  TEAE Hypotension grade 2: 0
  TEAE Hypotension grade 3: 0
  TEAE Hypotension grade 4: 0
  TEAE Insomnia grade 1: 0
  TEAE Insomnia grade 2: 0
  TEAE Insomnia grade 3: 0
  TEAE Insomnia grade 4: 0
  TEAE Pain in extremity grade 1: 0
  TEAE Pain in extremity grade 2: 0
  TEAE Pain in extremity grade 3: 0
  TEAE Pain in extremity grade 4: 0
  TEAE Pruritus grade 1: 0
  TEAE Pruritus grade 2: 0
  TEAE Pruritus grade 3: 0
  TEAE Pruritus grade 4: 0
